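GI50: concentration for 50% inhibition of growth. The concentration for full growth arrest is given as TGI.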
How the values were obtained:
Test in all cases: growth of human tumour cells (NCI), 384-well format
[1] = tested on: 786-0 renal
[2] = tested on: A498 renal
[3] = tested on: A549 NSCLC
[4] = tested on: ACHN renal
[5] = tested on: BT-549 breast
[6] = tested on: CAKI-1 renal
[7] = tested on: CCRF-CEM leukemia
[8] = tested on: COLO 205 colon
[9] = tested on: DU-145 prostate
[10] = tested on: EKVX NSCLC
[11] = tested on: HCC-2998 colon
[12] = tested on: HCT-116 colon
[13] = tested on: HCT-15 colon
[14] = tested on: HL-60(TB) leukemia
[15] = tested on: HOP-62 NSCLC
[16] = tested on: HOP-92 NSCLC
[17] = tested on: HS 578T breast
[18] = tested on: HT29 colon
[19] = tested on: IGROV1 ovarian
[20] = tested on: K-562 leukemia
[21] = tested on: KM12 colon
[22] = tested on: LOX IMVI melanoma
[23] = tested on: M14 melanoma
[24] = tested on: MALME-3M melanoma
[25] = tested on: MCF7 breast
[26] = tested on: MDA-MB-231 breast
[27] = tested on: MDA-MB-435 melanoma
[28] = tested on: MDA-MB-468 breast
[29] = tested on: MOLT-4 leukemia
[30] = tested on: NCI-H226 lung
[31] = tested on: NCI-H23 lung
[32] = tested on: NCI-H322M lung
[33] = tested on: NCI-H460 NSCLC
[34] = tested on: NCI-H522 lung
[35] = tested on: NCI/ADR-RES ovarian
[36] = tested on: OVCAR-3 ovarian
[37] = tested on: OVCAR-4 ovarian
[38] = tested on: OVCAR-8 ovarian
[39] = tested on: PC-3 prostate
[40] = tested on: RPMI-8226 leukemia
[41] = tested on: RXF 393 renal
[42] = tested on: SF-268 CNS
[43] = tested on: SF-295 CNS
[44] = tested on: SF-539 CNS
[45] = tested on: SK-MEL-28 melanoma
[46] = tested on: SK-MEL-5 melanoma
[47] = tested on: SK-OV-3 ovarian
[48] = tested on: SN12C renal
[49] = tested on: SNB-19 CNS
[50] = tested on: SNB-75 CNS
[51] = tested on: SR leukemia
[52] = tested on: SW-620 colon
[53] = tested on: T-47D breast
[54] = tested on: TK-10 renal
[55] = tested on: U251 glioblastoma
[56] = tested on: UACC-257 melanoma

`Nc1ccccc1NC(=O)c1ccc(CNc2nccc(-c3cccnc3)n2)cc1` gave a GI50 [1] of 390 nM, a TGI [1] of 2360 nM and a GI50 [2] of 261 nM. It also gave a TGI [2] of 1110 nM, a GI50 [3] of 621 nM and a TGI [3] of 2370 nM. The GI50 [4] was 348 nM, the TGI [4] was 1200 nM and the GI50 [5] was 497 nM. For the same molecule, the TGI [5] was 2390 nM, the GI50 [6] was 318 nM and the TGI [6] was 1200 nM. It also gave a GI50 [7] of 131 nM, a TGI [7] of 266 nM and a GI50 [8] of 292 nM. It also gave a TGI [8] of 741 nM, a GI50 [9] of 302 nM and a TGI [9] of 1420 nM. It also gave a GI50 [10] of 766 nM, a TGI [10] of 18100 nM and a GI50 [11] of 342 nM. For the same molecule, the TGI [11] was 1200 nM, the GI50 [12] was 136 nM and the TGI [12] was 350 nM. It also gave a GI50 [13] of 336 nM, a TGI [13] of 1310 nM and a GI50 [14] of 113 nM. The TGI [14] was 236 nM, the GI50 [15] was 255 nM and the TGI [15] was 1260 nM. The GI50 [16] was 219 nM, the TGI [16] was 823 nM and the GI50 [17] was 217 nM. It also gave a TGI [17] of 498 nM, a GI50 [18] of 285 nM and a TGI [18] of 1120 nM. It also gave a GI50 [19] of 235 nM, a TGI [19] of 808 nM and a GI50 [20] of 120 nM. It also gave a TGI [20] of 357 nM, a GI50 [21] of 400 nM and a TGI [21] of 3850 nM. For the same molecule, the GI50 [22] was 175 nM, the TGI [22] was 322 nM and the GI50 [23] was 456 nM. The TGI [23] was 1640 nM, the GI50 [24] was 150 nM and the TGI [24] was 298 nM. For the same molecule, the GI50 [25] was 213 nM, the TGI [25] was 1090 nM and the GI50 [26] was 371 nM. The TGI [26] was 3250 nM, the GI50 [27] was 209 nM and the TGI [27] was 419 nM. It also gave a GI50 [28] of 234 nM, a TGI [28] of 592 nM and a GI50 [29] of 150 nM. It also gave a TGI [29] of 285 nM, a GI50 [30] of 543 nM and a TGI [30] of 2120 nM. For the same molecule, the GI50 [31] was 248 nM, the TGI [31] was 1320 nM and the GI50 [32] was 410 nM. The TGI [32] was 1790 nM, the GI50 [33] was 216 nM and the TGI [33] was 1300 nM. For the same molecule, the GI50 [34] was 301 nM, the TGI [34] was 1390 nM and the GI50 [35] was 332 nM. It also gave a TGI [35] of 1270 nM, a GI50 [36] of 374 nM and a TGI [36] of 1680 nM. For the same molecule, the GI50 [37] was 371 nM, the TGI [37] was 1670 nM and the GI50 [38] was 242 nM. The TGI [38] was 1180 nM, the GI50 [39] was 408 nM and the TGI [39] was 8810 nM. It also gave a GI50 [40] of 28.2 nM, a TGI [40] of 75.2 nM and a GI50 [41] of 114 nM. It also gave a TGI [41] of 426 nM, a GI50 [42] of 225 nM and a TGI [42] of 555 nM. The GI50 [43] was 159 nM, the TGI [43] was 306 nM and the GI50 [44] was 473 nM. The TGI [44] was 2490 nM, the GI50 [45] was 190 nM and the TGI [45] was 368 nM. The GI50 [46] was 196 nM, the TGI [46] was 359 nM and the GI50 [47] was 258 nM. The TGI [47] was 1380 nM, the GI50 [48] was 593 nM and the TGI [48] was 1850 nM. For the same molecule, the GI50 [49] was 740 nM, the TGI [49] was 2540 nM and the GI50 [50] was 386 nM. For the same molecule, the TGI [50] was 7580 nM, the GI50 [51] was 32.6 nM and the TGI [51] was 148 nM. For the same molecule, the GI50 [52] was 208 nM, the TGI [52] was 657 nM and the GI50 [53] was 198 nM. The TGI [53] was 409 nM, the GI50 [54] was 244 nM and the TGI [54] was 1180 nM. It also gave a GI50 [55] of 159 nM, a TGI [55] of 333 nM and a GI50 [56] of 169 nM. It also gave a TGI [56] of 344 nM.
